For one data set, the target named is T1, c-Kit(V654A) (Homo sapiens, UniProt P10721, V654A).
T1 construct: recombinant human c-Kit, amino acids 544-end containing the V654A mutation; GST (N)
Briefly: c-Kit(V654A) assay (33P-ATP filter binding kinase assay). It is filed as biochemical. The note with it: recombinant human c-Kit aa 544-end V654A, ATP 200 μM. A digest of the protocol: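 Radiometric filter-binding read-out: substrate 33P incorporation counted by scintillation after P30 filtermat washes in 75 mM phosphoric acid and methanol. Enzyme: N-GST recombinant human c-Kit aa 544-end carrying V654A.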

Data set [1] has as its target T2, GIST430/654 cell line expressing mutated constitutively active cKIT receptor tyrosine kinase (Δ560-576 deletion and V654A point mutation) (Homo sapiens, UniProt P10721, DEL560-576/V654A).
T2 construct: endogenous in cells; host or cells: GIST430/654 cells
Briefly: Cellular cKIT autophosphorylation (phospho-Y307-cKIT, Luminex bead assay) in GIST430/654 cells. The note with it: compounds 45 min, read-out: GIST 430/654 IC50. It is filed as cell-based. A digest of the protocol:
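Phospho-Y307 cKIT in lysates was measured on a Luminex bead assay, with total-cKIT capture overnight at 4 °C and phosphospecific plus PE secondary detection. Cells had 45 min exposure to a compound dilution series the day after plating: GIST430 (Δ560-576) or GIST430/654 (Δ560-576/V654A, grown with 100 nM imatinib). IC50 values are relative to 0.3% DMSO-treated cells.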

A short description of data set [2]: Determination of solubility. The conditions noted are these: 20 mM Sorensen phosphate buffer, pH 7.4, aqueous buffer, kinetic from dmso stock.
Method: In a 96 well filtration plate, 2 μL of a 10 mM solution of the test compound in DMSO is added to 98 μL of 20 mM Sorensen phosphate buffer with pH 7.4. The mixture is incubated at room temperature for 120 min while agitating at 250 rpm followed by centrifugation at 2500 rpm for 3 min. After dilution by a factor of 2, the concentration of the test compound is determined using HPLC/UPLC with detection at a suitable wavelength and by comparison to a corresponding compound standard.
The nature of data set [3]: Determination of Efflux-Ratio (ER) in Caco-2 cells. The note with it: human, Caco-2, pH 7.4.
Method: Determination of Efflux-Ratio (ER) in Caco-2 Cells
The efflux ratio of the test compounds was determined in Caco-2 human epithelial colorectal adenocarcinoma cell line (TC7 clone) using calculation of apparent permeability (Papp). Cell monolayers were differentiated in vitro for 14 days before the experiment. Subsequently, the test compound (in HBSS pH 7.4 at 1 μM final concentration) was applied on the donor side while HBSS buffer (pH 7.4) was added to the receiver wells. […] The plate was then incubated in a 5% CO2 incubator (37° C., 100% humidity). At the end of the 2 hours incubation period, 50 μL sample was removed from both donor and receiver wells and diluted 1:1 with equal volumes of acetonitrile for LC-MS/MS analysis. The LC-MS/MS analysis used a one-point calibration method from a 1 μM standard solution diluted 1:1 with equal volume of acetonitrile (consistent to the test samples).
The data was used to calculate the apparent permeabilities of the compounds in both apical to basolateral (Papp,AB) and basolateral to apical (Papp,BA) directions at 1 μM concentration in duplicate. The Papp values were calculated from the concentrations in the donor and receiver compartments using the following formula:
Efflux ratio was calculated according to the following formula:
In data set [4] the target is T3, GIST430 cell line expressing constitutive active cKIT receptor tyrosine kinase (Δ560-576 deletion) (Homo sapiens, UniProt P10721, DEL560-576).
T3 construct: endogenous in cells; host or cells: GIST430 cells
T3 sequence (P10721 with tags, fused parts or gaps DEL560-576): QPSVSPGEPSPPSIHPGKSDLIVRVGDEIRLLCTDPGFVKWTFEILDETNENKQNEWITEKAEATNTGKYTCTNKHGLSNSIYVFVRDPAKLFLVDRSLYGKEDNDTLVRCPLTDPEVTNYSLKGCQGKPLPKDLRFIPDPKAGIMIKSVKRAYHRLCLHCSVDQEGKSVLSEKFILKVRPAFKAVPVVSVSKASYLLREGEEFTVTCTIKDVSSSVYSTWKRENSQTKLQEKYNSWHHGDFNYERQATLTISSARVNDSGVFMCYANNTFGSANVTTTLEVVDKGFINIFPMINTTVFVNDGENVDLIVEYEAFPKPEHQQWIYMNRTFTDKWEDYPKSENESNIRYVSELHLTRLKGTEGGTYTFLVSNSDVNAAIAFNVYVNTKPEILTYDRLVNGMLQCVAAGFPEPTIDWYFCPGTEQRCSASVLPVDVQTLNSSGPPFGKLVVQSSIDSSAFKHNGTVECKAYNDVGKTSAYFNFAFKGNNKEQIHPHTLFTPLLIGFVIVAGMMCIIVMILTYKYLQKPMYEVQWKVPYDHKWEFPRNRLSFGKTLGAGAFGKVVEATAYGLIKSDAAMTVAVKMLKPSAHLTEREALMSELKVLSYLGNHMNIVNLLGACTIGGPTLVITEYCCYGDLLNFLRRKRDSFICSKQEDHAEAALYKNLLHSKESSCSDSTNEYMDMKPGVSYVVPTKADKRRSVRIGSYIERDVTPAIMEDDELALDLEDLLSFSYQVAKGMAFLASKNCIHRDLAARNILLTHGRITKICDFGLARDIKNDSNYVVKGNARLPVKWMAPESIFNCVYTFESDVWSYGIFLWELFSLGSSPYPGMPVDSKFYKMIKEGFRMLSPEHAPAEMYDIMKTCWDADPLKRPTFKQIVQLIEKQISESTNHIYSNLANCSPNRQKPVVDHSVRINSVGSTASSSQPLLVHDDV
Briefly: Cellular cKIT autophosphorylation (phospho-Y307-cKIT, Luminex bead assay) in GIST430 cells. It is filed as cell-based. The conditions noted are these: cKIT autophosphorylation, GIST430 cells, compounds 45 min; read-out: GIST 430 IC50. As for the experimental part: Assay Principle for Cellular Testing of cKIT Mutant Inhibitors
The GIST430 cell line expressing constitutive active cKIT receptor tyrosine kinase (Δ560-576 deletion) and the Imatinib resistant GIST430/654 cell line expressing mutated constitutively active cKIT receptor tyrosine kinase (Δ560-576 deletion and V654A point mutation) were employed for assessing cellular potency of compounds. Cellular activity of mutant cKIT was determined by the degree of cKIT autophosphorylation at tyrosine 307 using a Luminex-based bead assay. GIST430 cells were plated with 22,000 cells per well of a 96-well plate in 100 μl medium (85% IMDM/15% FCS) and GIST430/654 cells were plated with 25,000 cells per well of a 96-well plate in 100 μl medium (85% IMDM/15% FCS supplemented with 100 nM Imatinib). At the following day compounds were added in a serial dilution for 45 min. Then, cells were lysed with 90 μl lysis buffer (20 mM Hepes pH 7.5, 200 mM NaCl, 1.5 mM MgCl2×6H2O, 0.4 mM EDTA, 1% Triton-X-100, 1% Phosphatase-Inhibitor II, 20 mM β-Glycerolphosphat, 0.1% Protease-Inhibitor Cocktail III, 0.01% Benzonase) and lysates were cleared by centrifugation through a 96-well filter plate (0.65 μm). Samples were incubated with Luminex-beads which were coupled with an anti-total cKIT antibody overnight at 4° C. under gentle agitation. For detection of phospho-Y307-cKIT a phosphospecific antibody and a species-specific PE-labeled secondary antibody were added. The amount of phospho-Y307-cKIT was determined in a Luminex 200 instrument measuring 100 events per well within 60 seconds.
Counts from samples treated with compounds were calculated as percent of control from solvent treated (0.3% DMSO) samples. Dose-response curves were fitted and IC50 values were determined using Genedata Screener software.

T2 sequence (P10721 with tags, fused parts or gaps DEL560-576/V654A): as the sequence (P10721 with tags, fused parts or gaps DEL560-576) above, with V612A counted along it
T1 sequence (P10721 544-976 V654A): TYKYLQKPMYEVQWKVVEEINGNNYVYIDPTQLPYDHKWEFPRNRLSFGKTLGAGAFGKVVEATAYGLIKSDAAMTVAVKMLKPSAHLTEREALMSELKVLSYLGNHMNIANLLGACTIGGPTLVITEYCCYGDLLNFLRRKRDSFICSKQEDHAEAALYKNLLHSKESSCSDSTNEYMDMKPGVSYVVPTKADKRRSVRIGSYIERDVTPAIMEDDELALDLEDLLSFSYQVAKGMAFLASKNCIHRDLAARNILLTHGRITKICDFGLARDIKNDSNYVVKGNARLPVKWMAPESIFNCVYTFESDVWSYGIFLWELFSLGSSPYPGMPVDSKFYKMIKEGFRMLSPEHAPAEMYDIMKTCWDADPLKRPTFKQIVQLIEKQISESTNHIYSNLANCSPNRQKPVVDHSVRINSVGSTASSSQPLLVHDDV

Take `Cn1ncc(-c2ccc(CNc3cc(-c4cnc5cc(OCCN6CCCC6)ccn45)ncn3)cc2)n1` [A73, [4-(2-methyl-2H-[1,2,3]triazol-4-yl)-benzyl]-{6-[7-(2-pyrrolidin-1-yl-ethoxy)-imidazo[1,2-a]pyridin-3-yl]-pyrimidin-4-yl}-amine]: the IC50 at c-Kit(V654A) is 4 nM; in data set [1], 98 nM. In data set [2], the solubility at 120 min was at least 25 µM. Also, the efflux ratio at 2 h, 1 μM in data set [3] is below 15.

For `Cn1cc(-c2ccc(CNc3cc(-c4cnc5cc(CCN6CCN(C7COC7)CC6)ccn45)ncn3)cc2)cn1` [A170, [4-(1-methyl-1H-pyrazol-4-yl)-benzyl]-(6-{7-[2-(4-oxetan-3-yl-piperazin-1-yl)-ethyl]-imidazo[1,2-a]pyridin-3-yl}-pyrimidin-4-yl)-amine], the values for the IC50 (on c-Kit(V654A); in data set [1]) were 33 nM and 330 nM, respectively. The molecule also showed a solubility at 120 min in data set [2] of at least 25 µM.

Regarding `Cn1cc(-c2ccc(CNc3cc(-c4cnc5cc(CCN6CCCC6)ccn45)ncn3)cc2)cn1` [A168, [4-(1-methyl-1H-pyrazol-4-yl)-benzyl]-{6-[7-(2-pyrrolidin-1-yl-ethyl)-imidazo[1,2-a]pyridin-3-yl]-pyrimidin-4-yl}-amine], the figures for the IC50 (at c-Kit(V654A); in data set [1]) were 27 nM and 630 nM, respectively. In data set [2], the solubility at 120 min is at least 25 µM. Further, in data set [3], the efflux ratio at 2 h, 1 μM was below 15.

`Cc1cc(N2CCCC2)ncc1CNc1cc(-c2cnc3ccccn23)ncn1` [A154, (6-imidazo[1,2-a]pyridin-3-yl-pyrimidin-4-yl)-(4-methyl-6-pyrrolidin-1-yl-pyridin-3-ylmethyl)-amine]: on c-Kit(V654A), the IC50 came to 180 nM. Also, the solubility at 120 min in data set [2] is at least 25 µM.

On to `COc1ccn2c(-c3cc(NCc4ccc(N5CCCCC5=O)cc4)ncn3)cnc2c1` [A12, 1-(4-{[(6-{7-methoxyimidazo[1,2-a]24yridine-3-yl}pyrimidin-4-yl)amino]methyl}phenyl)piperidin-2-one], for which the IC50 on c-Kit(V654A) turned out to be 87 nM; in data set [1], 1100 nM. In data set [2], this molecule had a solubility at 120 min of at least 25 µM.

On to `c1ccn2c(-c3cc(NCc4ccc(C5=NCCN5)cc4)ncn3)cnc2c1` [A15, [4-(4,5-Dihydro-1H-imidazol-2-yl)-benzyl]-(6-imidazo[1,2-a]pyridin-3-yl-pyrimidin-4-yl)-amine], for which, on c-Kit(V654A), the IC50 worked out at 320 nM. Besides, in data set [2], the solubility at 120 min was at least 25 µM.

With `c1ccn2c(-c3cc(NCc4ccc(N5CC6CC6C5)nc4)ncn3)cnc2c1` (centres unmarked) [A149, [6-(3-aza-bicyclo[3.1.0]hex-3-yl)-pyridin-3-ylmethyl]-(6-imidazo[1,2-a]pyridin-3-yl-pyrimidin-4-yl)-amine], the IC50 at c-Kit(V654A) was found to be 6.2 nM; in data set [1] it was 270 nM. In data set [2], the solubility at 120 min is at least 25 µM.

In the case of `Cc1cc(N2CC[C@@H](F)C2)ncc1CNc1cc(-c2cnc3ccccn23)ncn1` [A156, [6-((R)-3-fluoro-pyrrolidin-1-yl)-4-methyl-pyridin-3-ylmethyl]-(6-imidazo[1,2-a]pyridin-3-yl-pyrimidin-4-yl)-amine], the IC50 on c-Kit(V654A) is 180 nM. In data set [2], the solubility at 120 min was at least 25 µM.

Regarding `FC1(F)CCN(c2ccc(CNc3cc(-c4cnc5ccccn45)ncn3)cn2)C1` [A150, [6-(3,3-difluoro-pyrrolidin-1-yl)-pyridin-3-ylmethyl]-(6-imidazo[1,2-a]pyridin-3-yl-pyrimidin-4-yl)-amine], the IC50 at c-Kit(V654A) worked out at 8.9 nM; in data set [1], 140 nM; in data set [4], 12 nM. For the same molecule, in data set [3], the efflux ratio at 2 h, 1 μM was below 15.

Turning to `COCCOc1ccn2c(-c3cc(NCc4ccc(-c5cnn(C)c5)cc4)ncn3)cnc2c1` [A4, 6-[7-(2-methoxyethoxy)imidazo[1,2-a]pyridin-3-yl]-N-{[4-(1-methyl-1H-pyrazol-4-yl)phenyl]methyl}pyrimidin-4-amine], the IC50 on c-Kit(V654A) was determined as 7.3 nM; in data set [1], 48 nM; in data set [4], 4.8 nM. Besides, the efflux ratio at 2 h, 1 μM in data set [3] is below 15.

Take `Cn1cc(-c2ccc(CNc3cc(-c4cnc5cc(OCCO)ccn45)ncn3)cc2)cn1` [A172, 2-({3-[6-({[4-(1-methyl-1H-pyrazol-4-yl)phenyl]methyl}amino)pyrimidin-4-yl]imidazo[1,2-a]pyridin-7-yl}oxy)ethan-1-ol]: the IC50 turned out to be 6.3 nM on c-Kit(V654A), 75 nM in data set [1] and 2.7 nM in data set [4]. In addition, the efflux ratio at 2 h, 1 μM in data set [3] was below 15.

As to `Cn1ncc(-c2ccc(CNc3cc(-c4cnc5cc(OCC6CCN(C7COC7)CC6)ccn45)ncn3)cc2)n1` [A76, [4-(2-methyl-2H-[1,2,3]triazol-4-yl)-benzyl]-{6-[7-(1-oxetan-3-yl-piperidin-4-ylmethoxy)-imidazo[1,2-a]pyridin-3-yl]-pyrimidin-4-yl}-amine], the IC50 amounted to 7.8 nM at c-Kit(V654A), 52 nM in data set [1] and 2.1 nM in data set [4]. In data set [3], the efflux ratio at 2 h, 1 μM is below 15.

Take `COCCOc1ccn2c(-c3cc(NCc4ccc(-n5ccnn5)cc4)ncn3)cnc2c1` [A16, 6-[7-(2-methoxyethoxy)imidazo[1,2-a]pyridin-3-yl]-N-{[4-(1H-1,2,3-triazol-1-yl)phenyl]methyl}pyrimidin-4-amine]: the results for the IC50 (on c-Kit(V654A); in data set [1]; in data set [4]) were 6.3 nM, 130 nM and 4.2 nM, respectively. Moreover, in data set [3], the efflux ratio at 2 h, 1 μM was below 15.

Consider `c1cn(-c2ccc(CNc3cc(-c4cnc5cc(OCC6CCN(C7COC7)CC6)ccn45)ncn3)cc2)nn1` [A83, {6-[7-(1-oxetan-3-yl-piperidin-4-ylmethoxy)-imidazo[1,2-a]pyridin-3-yl]-pyrimidin-4-yl}-(4-[1,2,3]triazol-1-yl-benzyl)-amine], for which the IC50 at c-Kit(V654A) stood at 25 nM; in data set [1] it was 310 nM. The solubility at 120 min in data set [2] is at least 25 µM.

As to `Cc1nc(-c2ccc(CNc3cc(-c4cnc5cc(OCCN6CCC(=O)N(C)CC6)ccn45)ncn3)cc2)co1` [A261, 4-methyl-1-[2-({3-[6-({[4-(2-methyl-1,3-oxazol-4-yl)phenyl]methyl}amino)pyrimidin-4-yl]imidazo[1,2-a]pyridin-7-yl}oxy)ethyl]-1,4-diazepan-5-one], the IC50 at c-Kit(V654A) came out at 2.1 nM; in data set [1], 54 nM; in data set [4], 1.4 nM. Besides, the efflux ratio at 2 h, 1 μM in data set [3] was below 15.

As for `COc1ccn2c(-c3cc(NCc4ccc(-n5ccnn5)cc4)ncn3)cnc2c1` [A18, 6-{7-methoxyimidazo[1,2-a]pyridin-3-yl}-N-{[4-(1H-1,2,3-triazol-1-yl)phenyl]methyl}pyrimidin-4-amine], the IC50 was found to be 13 nM at c-Kit(V654A), 200 nM in data set [1] and 7.2 nM in data set [4]. For the same molecule, the efflux ratio at 2 h, 1 μM in data set [3] is below 15.

With `Cn1cc(-c2ccc(CNc3cc(-c4cnc5cc(OCCCN[C@@H]6CCOC6)ccn45)ncn3)cc2)cn1` [A260, N-{[4-(1-methyl-1H-pyrazol-4-yl)phenyl]methyl}-6-[7-(3-{[(3R)-oxolan-3-yl]amino}propoxy)imidazo[1,2-a]pyridin-3-yl]pyrimidin-4-amine], the IC50 on c-Kit(V654A) worked out at 6 nM; in data set [1] it was 43 nM; in data set [4], 1.9 nM. The efflux ratio at 2 h, 1 μM in data set [3] was 15 to 50.

`Cn1ncc(-c2ccc(CNc3cc(-c4cnc5cc(OCCN6CC7(COC7)C6)ccn45)ncn3)cc2)n1` [A108, [4-(2-methyl-2H-[1,2,3]triazol-4-yl)-benzyl]-(6-{7-[2-(2-oxa-6-aza-spiro[3.3]hept-6-yl)-ethoxy]-imidazo[1,2-a]pyridin-3-yl}-pyrimidin-4-yl)-amine]: the IC50 worked out at 3.3 nM on c-Kit(V654A), 40 nM in data set [1] and 1.5 nM in data set [4]. In data set [3], the efflux ratio at 2 h, 1 μM is below 15.

What is called solubility is how much of the substance goes into solution per volume. A high value points to a readily soluble substance. Usually efflux ratio stands for a quotient of directional permeabilities that is used to spot active efflux.

For the origin of these results see patent US12655142B2 (Merck Patent GmbH, priority 2019, dated 2026).
